Measured values reported in PMC7993375, “Discovery of novel quinoline-based analogues of combretastatin A-4 as tubulin polymerisation inhibitors with apoptosis inducing activity and potent anticancer effect” (Journal of Enzyme Inhibition and Medicinal Chemistry, 2021).

Experiments:
Assay type in all cases: cell-based, human
[1] = test system: MCF-7 cells; experiment: Colony formation assay; conditions: 50 and 250 nM
Method: MCF-7 cells (600 cells per well) were seeded in 6-well plates and incubated for 24 h before being then treated with different doses of the compound 12c (50 and 250 nM) for 14 days. Following, the cells were washed with PBS twice and subsequently fixed with 4% paraformaldehyde and stained with 0.05% crystal violet for 30 min. Finally, cells were visualised using an inverted microscope.

[2] = test system: MCF-7 cells; experiment: Mitochondrial membrane potential (DiOC2(3), annexin V, flow cytometry); conditions: 24 h, untreated 1.1%
Method: Mitochondrial membrane potential (Δψmt) was measured by flow cytometry with DiOC2(3) staining and additional labelling with an annexin V conjugate. After treatment with compound 12c (50 and 250 nM) and CA-4 (50 nM), cells were stained with DiOC2(3) dye for 30 min in the incubator, then harvested and washed with PBS. DiOC2(3)-stained cells were resuspended with 1X annexin binding buffer, followed by addition of annexin V conjugate and incubated at 37 °C for 15 min. The data from the flow cytometry were analysed by Cell Quest software. Production of intracellular reactive oxygen species (ROS) was measured using 2,7–dichlorofluorescin diacetate (H2-DCFDA) dye. MCF-7 cells were seeded and treated either with vehicle (0.1% DMSO) or with compound 12c (50 and 250 nM) or CA-4 (50 nM) for 6, 12 and 24 h. H2O2 was used as a positive control. The amount of ROS generated was estimated after 2 h of selected compound treatment. The cells were collected by centrifugation and washed twice with PBS. Cells were then incubated with DCFDA dye (25 µM) in dark at 37 °C for 1 h. Fluorescence spectra (510 − 600 nm) were monitored using an excitation wavelength of 488 nm[53]^,[54].

[3] = test system: anti-apoptotic protein Bcl-2; experiment: Bcl-2 ELISA, expression level in MCF-7 cells; conditions: MCF-7, 250 nM, 48 h
Method: The level of the anti-apoptotic marker and apoptotic marker BAX were assessed using Bcl-2 Elisa kit and human Bax ELISA Kit purchased from Zymed laboratories, invitrogen and Cloud-Clone Crop. (Katy, TX, USA), respectively, following the manufacturer’s instructions. Briefly, Treated MCF-7 cell lysate with 250 nM of compound 12c were prepared, and equal amount of cell lysates were loaded and propped with specific antibodies. The samples were measured and analysed at 450 nm in ROBONEK P2000 ELISA reader. In Vitro Caspase-9 Activation Assay was performed using human active caspase-9 Invitrogen EIA kit according to the manufacturer’s instructions. Compound 12c at concentrations of 50 and 250 nM and CA-4 (50 nM) were prepared in dH2O up to a final volume of 50 µL/well followed by addition of 5 µL of active caspase-9. Following, the cells were mixed and 50 µL of the Master Mix was added to each well and allowed to react at 37 °C for 1 h. The fluorescence intensity of the test samples was recorded and analysed in a fluorescence plate reader at 400 nm excitation and 505 nm emissions. All experiments were conducted in triplicates.

COc1cc(C2=NC(=Cc3cc4ccc(C)cc4nc3OC)C(=O)O2)cc(OC)c1OC [Compound 12c, 4-[(2-Methoxy-7-methylquinolin-3-yl)methylene]-2–(3,4,5-trimethoxyphenyl) oxazol-5(4H)-one]
clonogenic formation potential of MCF-7 cells [1]: suppressed the clonogenic formation potential of MCF-7 cells in a dose dependent manner
percentage of apoptotic cells with decrease in MMP ([2]; 50 nM): 24.9%
percentage of apoptotic cells with decrease in MMP ([2]; 250 nM): 31.3%
expression level of the anti-apoptotic protein Bcl-2 [3]: decreased
